Blank lines part the entries; values can stand above or below the compound they belong to.
Assay: Influencing factor stability study on crystal forms (light, high temperature, high humidity, 30 days)
Assay type: physicochemical
[1] = Light exposure (4500 Lux), 5 days
[2] = Light exposure (4500 Lux), 10 days
[3] = Light exposure (4500 Lux), 30 days
[4] = Light exposure (4500 Lux), 7 days
[5] = Light exposure (4500 Lux), 14 days

Color and state (40 °C, 5 days): Off-white solid | Crystal form (40 °C, 5 days): Did not change | Purity (%) (40 °C, 5 days): 98.0% | Color and state (40 °C, 10 days): Off-white solid | Crystal form (40 °C, 10 days): Did not change | Purity (%) (40 °C, 10 days): 97.6% | Color and state (40 °C, 30 days): Off-white solid | Crystal form (40 °C, 30 days): Did not change | Purity (%) (40 °C, 30 days): 97.2% | Color and state (60 °C, 5 days): Off-white solid | Crystal form (60 °C, 5 days): Did not change | Purity (%) (60 °C, 5 days): 98.0% | Color and state (60 °C, 10 days): Off-white solid | Crystal form (60 °C, 10 days): Did not change | Purity (%) (60 °C, 10 days): 97.9% | Color and state (60 °C, 30 days): Off-white solid | Crystal form (60 °C, 30 days): Did not change | Purity (%) (60 °C, 30 days): 97.5% | Color and state (75% RH, 5 days): Off-white solid | Crystal form (75% RH, 5 days): Did not change | Purity (%) (75% RH, 5 days): 98.1% | Color and state (75% RH, 10 days): Off-white solid | Crystal form (75% RH, 10 days): Did not change | Purity (%) (75% RH, 10 days): 98.1% | Color and state (75% RH, 30 days): Off-white solid | Crystal form (75% RH, 30 days): Did not change | Purity (%) (75% RH, 30 days): 98.1% | Color and state (92.5% RH, 5 days): Off-white solid | Crystal form (92.5% RH, 5 days): Did not change | Purity (%) (92.5% RH, 5 days): 98.1% | Color and state (92.5% RH, 10 days): Off-white solid | Crystal form (92.5% RH, 10 days): Did not change | Purity (%) (92.5% RH, 10 days): 98.1% | Color and state (92.5% RH, 30 days): Off-white solid | Crystal form (92.5% RH, 30 days): Did not change | Purity (%) (92.5% RH, 30 days): 98.1% | Color and state (Initial, 0 days): Off-white solid | Crystal form (Initial, 0 days): Crystal form C | Purity (%) (Initial, 0 days): 98.2% | Color and state [1]: Off-white solid | Crystal form [1]: Did not change | Purity (%) [1]: 98.0% | Color and state [2]: Off-white solid | Crystal form [2]: Did not change | Purity (%) [2]: 97.9% | Color and state [3]: Off-white solid | Crystal form [3]: Did not change | Purity (%) [3]: 97.5%
SMILES: C=CC(=O)N1CCN2C(=O)c3cc(F)c(-c4ccc(F)c5sc(N)c(C#N)c45)c4c(Cl)nn(c34)CC[C@H]2C1 [crystal form C]

Color and state (40 °C, 7 days): Off-white solid | Crystal form (40 °C, 7 days): Did not change | Purity (%) (40 °C, 7 days): 98.2% | Color and state (40 °C, 14 days): Off-white solid | Crystal form (40 °C, 14 days): Did not change | Purity (%) (40 °C, 14 days): 98.1% | Color and state (40 °C, 30 days): Off-white solid | Crystal form (40 °C, 30 days): Did not change | Purity (%) (40 °C, 30 days): 97.7% | Color and state (60 °C, 7 days): Off-white solid | Crystal form (60 °C, 7 days): Did not change | Purity (%) (60 °C, 7 days): 98.3% | Color and state (60 °C, 14 days): Off-white solid | Crystal form (60 °C, 14 days): Did not change | Purity (%) (60 °C, 14 days): 98.2% | Color and state (60 °C, 30 days): Off-white solid | Crystal form (60 °C, 30 days): Did not change | Purity (%) (60 °C, 30 days): 97.7% | Color and state (75% RH, 7 days): Off-white solid | Crystal form (75% RH, 7 days): Did not change | Purity (%) (75% RH, 7 days): 98.4% | Color and state (75% RH, 14 days): Off-white solid | Crystal form (75% RH, 14 days): Did not change | Purity (%) (75% RH, 14 days): 98.3% | Color and state (75% RH, 30 days): Off-white solid | Crystal form (75% RH, 30 days): Did not change | Purity (%) (75% RH, 30 days): 98.4% | Color and state (92.5% RH, 7 days): Off-white solid | Crystal form (92.5% RH, 7 days): Did not change | Purity (%) (92.5% RH, 7 days): 98.3% | Color and state (92.5% RH, 14 days): Off-white solid | Crystal form (92.5% RH, 14 days): Did not change | Purity (%) (92.5% RH, 14 days): 98.3% | Color and state (92.5% RH, 30 days): Off-white solid | Crystal form (92.5% RH, 30 days): Did not change | Purity (%) (92.5% RH, 30 days): 98.3% | Color and state (Initial, 0 days): Off-white solid | Crystal form (Initial, 0 days): Crystal form H | Purity (%) (Initial, 0 days): 98.3% | Color and state [4]: Off-white solid | Crystal form [4]: Did not change | Purity (%) [4]: 97.8% | Color and state [5]: Off-white solid | Crystal form [5]: Did not change | Purity (%) [5]: 96.8% | Color and state [3]: Off-white solid | Crystal form [3]: Did not change | Purity (%) [3]: 94.0%
SMILES: C=CC(=O)N1CCN2C(=O)c3cc(F)c(-c4ccc(F)c5sc(N)c(C#N)c45)c4c(Cl)nn(c34)CC[C@H]2C1 [crystal form H]

Color and state (40 °C, 7 days): Off-white solid | Crystal form (40 °C, 7 days): Did not change | Purity (%) (40 °C, 7 days): 99.1% | Color and state (40 °C, 14 days): Off-white solid | Crystal form (40 °C, 14 days): Did not change | Purity (%) (40 °C, 14 days): 99.0% | Color and state (40 °C, 30 days): Off-white solid | Crystal form (40 °C, 30 days): Did not change | Purity (%) (40 °C, 30 days): 98.9% | Color and state (60 °C, 7 days): Off-white solid | Crystal form (60 °C, 7 days): Did not change | Purity (%) (60 °C, 7 days): 99.1% | Color and state (60 °C, 14 days): Off-white solid | Crystal form (60 °C, 14 days): Did not change | Purity (%) (60 °C, 14 days): 99.0% | Color and state (60 °C, 30 days): Off-white solid | Crystal form (60 °C, 30 days): Did not change | Purity (%) (60 °C, 30 days): 98.9% | Color and state (75% RH, 7 days): Off-white solid | Crystal form (75% RH, 7 days): Did not change | Purity (%) (75% RH, 7 days): 99.1% | Color and state (75% RH, 14 days): Off-white solid | Crystal form (75% RH, 14 days): Did not change | Purity (%) (75% RH, 14 days): 99.1% | Color and state (75% RH, 30 days): Off-white solid | Crystal form (75% RH, 30 days): Did not change | Purity (%) (75% RH, 30 days): 99.1% | Color and state (92.5% RH, 7 days): Off-white solid | Crystal form (92.5% RH, 7 days): Did not change | Purity (%) (92.5% RH, 7 days): 99.1% | Color and state (92.5% RH, 14 days): Off-white solid | Crystal form (92.5% RH, 14 days): Did not change | Purity (%) (92.5% RH, 14 days): 99.1% | Color and state (92.5% RH, 30 days): Off-white solid | Crystal form (92.5% RH, 30 days): Did not change | Purity (%) (92.5% RH, 30 days): 99.1% | Color and state (Initial, 0 days): Off-white solid | Crystal form (Initial, 0 days): Crystal form L | Purity (%) (Initial, 0 days): 99.1% | Color and state [4]: Off-white solid | Crystal form [4]: Did not change | Purity (%) [4]: 98.6% | Color and state [5]: Off-white solid | Crystal form [5]: Did not change | Purity (%) [5]: 98.2% | Color and state [3]: Off-white solid | Crystal form [3]: Did not change | Purity (%) [3]: 98.3%
SMILES: C=CC(=O)N1CCN2C(=O)c3cc(F)c(-c4ccc(F)c5sc(N)c(C#N)c45)c4c(Cl)nn(c34)CC[C@H]2C1 [crystal form L]
